The values that follow come from PubChem BioAssay (NCI).

Test in all cases: NCI-60 cell line screen, 48 h
For test [1], the system named is SK-MEL-5 melanoma.
The test system of test [2] is IGROV1 ovarian.
For test [3], the system named is M14 melanoma.
Test [4] relates to KM12 colon.
Test [5] concerns OVCAR-4 ovarian.
Test [6] deals with SF-539 CNS.
In test [7] the test system is U251 CNS.
The subject of test [8] is HL-60(TB) leukemia.
The test system of test [9] is 786-0 renal.
Test [10] relates to HCC-2998 colon.

The structures appear in SMILES notation.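 96-well plates; 48 h exposure; 5 concentrations. Endpoints by linear interpolation between flanking doses. Not reached: highest tested concentration assigned. The concentration for 50% growth inhibition is given as GI50. TGI is the concentration that stops growth completely.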

Take `Cc1ccc(S(=O)(=O)NC(=O)NCCC(=O)O)cc1`: the TGI in [1], in [2], in test [3], in test [4], in [5] and in test [6] was > 100 µM throughout. Besides, the TGI in test [7], in test [8] and in test [9] was > 100 µM throughout.

On to `C[C@@H]1C[C@]2(C[C@@H](C)[C@H]3C(C[C@@]4(C)CCC[C@@H]5C6=C[C@H](CCC34C)OC6=CC(=O)OC5(C)C)O2)OC1=O` (stereo partly specified), for which the TGI in test [1], in [2], in test [10], in test [4], in [5] and in [6] was > 51.5 µM each time. In addition, the TGI in test [7] and in [8] was > 51.5 µM throughout.

As to `CCOC(=O)c1c2c(n(-c3ccc(OC)cc3)c1C)C(=O)C(=O)c1ccccc1-2`, the TGI was found to be 2.59 µM in test [1]; 12.7 µM in test [2]; 3.17 µM in test [3]; 3.38 µM in test [10]; 3.61 µM in [4]; 3.44 µM in [5]. The figures for the TGI in [6], in [7] and in [9] were 1.76 µM, 2.63 µM and 3.5 µM, respectively.

Take `Cc1cccc2nc3cccc(C(=O)NCCC[N+](C)(CCCNC(=O)c4cccc5nc6cccc(C)c6nc45)Cc4c([N+](=O)[O-])ncn4C)c3nc12`: the GI50 is 12.1 µM in test [1]; 17.5 µM in test [4]; 14.8 µM in [5]; 1.59 µM in test [6]; 18.2 µM in test [7]; 48.6 µM in [8]. Moreover, the TGI was 366 µM in test [1]; > 1100 µM in [2]; 790 µM in [10]; > 1100 µM in test [4]; > 1100 µM in [5]; 9.07 µM in [6]. For the same molecule, the TGI in test [7] and in test [9] was > 1100 µM in each case.

Consider `CC(=Nc1c2ccccc2nc2ccccc12)N(C)C`, for which the TGI is 27.8 µM in test [1]; > 100 µM in [2]; 25.4 µM in [3]; 90.8 µM in test [5]; 72 µM in test [7]; 24 µM in test [8]. The TGI in test [9] was > 100 µM.

As to `S=C1C(=Nc2ccccc2)N(c2ccccc2)/C(=N\c2ccccn2)N1c1ccccc1`, the TGI in test [1] was 27.2 µM; in test [2], 26.2 µM; in test [10], 27.1 µM; in test [4], 25.5 µM; in test [5] it was 29.5 µM; in [6], 20.9 µM. Further, the TGI in [7] is 29.5 µM; in test [8] it was > 100 µM; in test [9], 27.6 µM.

On to `NC(c1ccccc1)(C(F)(F)F)P1(=O)OC(=O)c2ccccc2O1` (stereo unspecified), for which the TGI in [1], in test [2], in [3], in test [10], in [4] and in test [5] was > 100 µM each time. For the same molecule, the TGI in [6], in test [7] and in test [9] was > 100 µM throughout.

Take `C[C@H](CC[C@@H](O)C(C)(C)O)[C@H]1CC[C@@]2(C)[C@@H]3CC=C4[C@@H](CC[C@H](O)C4(C)C)[C@]3(C)C(=O)C[C@]12C`: the TGI was > 50 µM in test [1]; > 50 µM in test [2]; > 50 µM in test [3]; 49.2 µM in test [4]; > 50 µM in [5]; > 50 µM in test [6]. For the same molecule, the TGI in test [7], in test [8] and in test [9] was > 50 µM in each case.

Regarding `CCOC(=O)c1c2c(n3ccc(NC(=O)OC(C)(C)C)cc13)C(=O)c1ncccc1C2=O`, the GI50 in test [1] was 0.174 µM; in test [2] it was 0.152 µM; in test [3], 0.0445 µM; in test [5] it was 0.291 µM; in test [6] it was 0.118 µM; in test [7], 0.0465 µM. Besides, the GI50 in test [8] is 0.0256 µM. The TGI in test [1] came out at 0.388 µM; in test [2] it was 2.28 µM; in test [3] it was 1.26 µM; in [5], 3.22 µM; in test [6], 0.549 µM; in test [7], 1.25 µM. The molecule also showed a TGI in test [8] of 0.38 µM.

Turning to `O=C1CCCC2=C1C(c1ccc3c(c1)OCO3)Nc1ccc3ccccc3c12` (stereo unspecified), the TGI in test [1], in [2], in test [3], in [10], in test [4] and in test [6] was > 100 µM in each case. For the same molecule, the TGI in test [7] and in test [9] was > 100 µM each time.

On to `C1#Cc2ccccc2OCCOc2ccccc2C#Cc2ccccc2OCCOc2ccccc21`, for which the TGI is 58.7 µM in test [1]; 41.5 µM in [2]; > 100 µM in test [3]; > 100 µM in test [4]; 30.6 µM in test [5]; 28.1 µM in test [7]. For the same molecule, the TGI in [8] is > 100 µM; in test [9], 28.8 µM.

For `CO/C(=N\N=C\c1ccc(Cl)cc1Cl)c1ccncc1`, the TGI in test [3], in test [4], in test [5], in test [7], in [8] and in test [9] was > 10 µM in each case.

Regarding `COC(=O)c1nc(-c2ccc3c(n2)C(=O)C(N)=C(OC)C3=O)c(N)c(-c2ccc(OC)c(OC)c2O)c1C`, the TGI in test [1] worked out at 1.96 µM; in [2], 4.77 µM; in test [10], 0.221 µM; in test [4] it was 6.13 µM; in test [5] it was 3.06 µM; in test [6] it was 1.39 µM. Also, the TGI was found to be 2.37 µM in [7] and 6.32 µM in [8].

For `O=C(NNc1cn[nH]c(=O)c1Cl)/C(=C/c1ccc2c(c1)OCO2)NC(=O)c1ccccc1`, the TGI in test [1], in test [2], in test [3], in [10], in test [4] and in test [5] was > 100 µM throughout. The TGI in test [6], in [7] and in test [9] was > 100 µM in each case.

Consider `CC(C)(C)OC(=O)NC(Cc1ccc(O)cn1)C(N)=O` (stereo unspecified), for which the TGI in [1], in test [2], in [10], in test [4], in [5] and in test [6] was > 100 µM throughout. Besides, the TGI in test [7], in [8] and in test [9] was > 100 µM in each case.

Consider `COc1ccccc1NC(=S)N/N=C(/C)c1ccccn1`, for which the TGI in test [3] is 2.54 µM; in test [10], > 100 µM; in test [4] it was > 100 µM; in test [5], > 100 µM; in [6], 14.9 µM; in test [7], > 100 µM. Moreover, the values for the TGI in [8] and in test [9] were 2.08 µM and 5.17 µM, respectively.

As to `O=C1C=C2CO[C@H]3OC[C@H](O)[C@@H]1[C@@H]23`, the TGI is > 100 µM in test [1]; > 100 µM in test [2]; > 100 µM in [3]; > 100 µM in test [10]; > 100 µM in test [4]; 63.6 µM in [7]. In addition, the TGI in test [8] is 76.1 µM; in [9], > 100 µM.

Consider `CC1(C)[C@@H](Cn2cnc3c(=O)[nH]c(N)nc32)CC[C@@]1(C)CO`, for which the TGI in test [1], in [3], in test [10], in test [4], in test [5] and in test [6] was > 100 µM in each case. In addition, the TGI in test [7] and in [9] was > 100 µM each time.

Regarding `O=C(Nc1nnc(-c2ccccc2)o1)C(SC(=S)N1CCOCC1)c1ccccc1` (stereo unspecified), the TGI in [1] was 38.7 µM; in test [2], > 100 µM; in test [3] it was > 100 µM; in test [4] it was > 100 µM; in test [5], > 100 µM; in test [6], > 100 µM. Further, the figures for the TGI in test [7], in test [8] and in test [9] were > 100 µM, 36.3 µM and > 100 µM, respectively.

Regarding `C=C(CC(=O)Nc1ccc(C(=O)OC)o1)C(=O)OC`, the TGI in [1] is 43.1 µM; in test [2] it was 55.5 µM; in test [3] it was 36.1 µM; in test [4] it was 42.5 µM; in test [5] it was 71.6 µM; in test [6] it was 36.1 µM. In addition, the TGI in test [7] was > 100 µM; in test [9] it was 39.6 µM.

Consider `COc1ccc(/C=C(\C(=C/c2ccc(OC)cc2)[N+](=O)[O-])[N+](=O)[O-])cc1`, for which the TGI in test [1] stood at 15.9 µM; in [2], 15.4 µM; in test [3], 18.2 µM; in test [10], 30.9 µM; in [4], 36.2 µM; in [5], 27.1 µM. Besides, the TGI is 5.71 µM in [6], 8.52 µM in [7] and 4.96 µM in test [9].

In the case of `CC1CCc2c(sc3ncnc(N/N=C/c4ccc(Cl)c(Cl)c4)c23)C1` (stereo unspecified), the TGI is 51.3 µM in test [1]; > 100 µM in test [2]; 30.2 µM in test [3]; > 100 µM in [10]; 60.6 µM in test [6]; 20 µM in test [7]. Further, the TGI was > 100 µM in [8] and 55.8 µM in [9].

On to `Nc1ccccc1NC(=O)CCCCCCC(=O)Nc1ccc2c(c1)/C(=C/c1ccc[nH]1)C(=O)N2`, for which the GI50 in test [1] was > 100 µM; in [2], 49.8 µM; in test [3], 69.2 µM; in test [10], > 100 µM; in test [4], 1.45 µM; in test [6] it was 1.32 µM. Further, the GI50 in test [7] is 1.08 µM; in test [8] it was 1.8 µM. The TGI in test [1], in test [2], in test [3], in test [10], in test [4] and in test [6] was > 100 µM in each case. Also, the TGI in test [7] and in test [8] was > 100 µM each time.

With `CCc1nn(S(=O)(=O)c2ccc(C)cc2)c2c1CS(=O)(=O)CC2`, the TGI in test [1], in [3], in test [4], in test [5], in [6] and in test [7] was > 100 µM in each case. Further, the TGI in test [9] is > 100 µM.

For the molecule `CSc1nc(NC2OCC(O)C(O)C2O)c(N)c(=O)n1C` (stereo unspecified), the TGI in test [1], in [2], in [10], in test [4], in test [5] and in [6] was > 100 µM throughout. Besides, the TGI in [7] and in test [8] was > 100 µM throughout.

With `Cc1ccc(NC(=S)Nc2c(C)n(C)n(-c3ccccc3)c2=O)cc1`, the TGI in test [1], in test [2], in test [3], in [10], in [4] and in test [6] was > 100 µM each time. Besides, the TGI in test [7], in [8] and in test [9] was > 100 µM each time.

In the case of `Cc1cn(CC2=NCCCN2)c(=O)[nH]c1=O`, the TGI in test [1], in [2], in [3], in test [10], in test [7] and in test [9] was > 100 µM each time.

`CC(=O)OCc1cc(=O)n(C)c2c3c4c(cc12)c(C)cc(=O)n4CO3`: the TGI in [1] came out at 4.18 µM; in [2], 11.5 µM; in test [10], 4.61 µM; in test [4], 41.7 µM; in test [5], 6.56 µM; in test [6] it was 3.95 µM. In addition, the TGI was 26.6 µM in [7] and 16.2 µM in test [8].

Take `OCC(O)C1OC2CC1Nc1ccccc1N2` (stereo unspecified): the TGI in [1], in [2], in [10], in test [4], in [6] and in [7] was > 100 µM throughout. Moreover, the TGI in test [8] and in [9] was > 100 µM throughout.
